Structures are written as SMILES.

A short description of data set [1]: in vitro. As to conditions: PAMPA. (The PAMPA barrier holds no transporters, so it reflects passive diffusion.)
The conditions of data set [2]: rat, in vivo, po.
For data set [3], the target named is T1, human FMO1 Supersomes (Homo sapiens, UniProt Q01740).
T1 construct: purchased BD Biosciences 456241
T1 sequence (Q01740 1-532): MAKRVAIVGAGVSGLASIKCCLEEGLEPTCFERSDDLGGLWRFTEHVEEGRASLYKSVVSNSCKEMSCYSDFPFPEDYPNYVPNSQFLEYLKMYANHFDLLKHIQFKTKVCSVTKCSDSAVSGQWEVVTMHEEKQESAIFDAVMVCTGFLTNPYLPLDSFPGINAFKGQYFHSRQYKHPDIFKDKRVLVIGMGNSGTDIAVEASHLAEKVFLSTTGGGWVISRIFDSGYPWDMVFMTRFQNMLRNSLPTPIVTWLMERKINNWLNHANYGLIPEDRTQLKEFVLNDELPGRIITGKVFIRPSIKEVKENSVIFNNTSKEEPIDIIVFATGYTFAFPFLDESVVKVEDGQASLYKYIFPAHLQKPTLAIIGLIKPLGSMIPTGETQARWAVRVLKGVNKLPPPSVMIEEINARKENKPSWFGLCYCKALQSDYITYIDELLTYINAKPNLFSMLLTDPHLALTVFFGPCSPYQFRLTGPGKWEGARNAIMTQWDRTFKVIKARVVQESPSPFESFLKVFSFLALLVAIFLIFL
Briefly: Metabolism by flavin monoxygenase 1 (FMO1) Supersomes. It is filed as in vitro ADME. The settings on record: after 6 hours (FIG. 2). On the procedure: […] Aliquots were removed every 10 minutes, and 1% formic acid was added to halt the reaction. Samples were centrifuged, filtered through 0.2 micron spinfilter and the amount of each compound in the supernatants was quantitated using LC/MS/MS.

The test system of data set [4] is pooled male Sprague-Dawley rat liver microsomes. The experiment in a line: Metabolism by rat liver microsomes. It is filed as in vitro ADME. The settings on record: 6 hours incubation (FIG. 3). As to the method: Compounds were incubated with pooled male Sprague-Dawley rat liver microsomes (BD Biosciences, #452501) and an NADP-regenerating system in a phosphate buffer (pH 7.4) for a total of 6 hours. Aliquots were removed every 2 hours, and 1% formic acid was added to halt the reaction. Samples were centrifuged, filtered through 0.2 micron spinfilter and the amount of each compound in the supernatants was quantitated using LC/MS/MS.
In general terms: Liver microsomes are vesicles of endoplasmic reticulum, rich in cytochrome P450 enzymes.

Data set [5] can be described thus: PAMPA test, Example 34. The settings on record: PAMPA.
The target in data set [6] is T2, human muscarinic M1 receptors (Homo sapiens, UniProt P11229).
T2 construct: host or cells: A9L cells
T2 sequence (P11229 1-460): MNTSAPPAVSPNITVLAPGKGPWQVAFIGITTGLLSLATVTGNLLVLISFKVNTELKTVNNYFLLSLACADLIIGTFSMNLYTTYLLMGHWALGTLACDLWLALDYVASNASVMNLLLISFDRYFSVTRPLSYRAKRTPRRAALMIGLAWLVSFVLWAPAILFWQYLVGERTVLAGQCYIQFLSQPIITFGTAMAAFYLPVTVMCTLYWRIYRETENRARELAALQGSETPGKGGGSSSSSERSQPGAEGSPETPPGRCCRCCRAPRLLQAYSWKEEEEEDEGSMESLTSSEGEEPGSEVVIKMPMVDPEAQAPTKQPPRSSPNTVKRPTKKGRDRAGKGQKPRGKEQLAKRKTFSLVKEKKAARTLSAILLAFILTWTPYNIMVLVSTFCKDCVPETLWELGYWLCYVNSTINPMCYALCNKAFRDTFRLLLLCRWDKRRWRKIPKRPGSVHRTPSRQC
Briefly: IP production in A9L cells with human M1 receptors (IPOne TR-FRET), Example 28. It is filed as cell-based. Summed up: (§1)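 A9L cells transfected with human M1 or M3 receptors, exposed to compound in medium with 10 mM LiCl and 10 mM HEPES (pH 7.4) for 60 min at 37 °C. IP in lysates measured by IPOne TR-FRET; efficacy expressed relative to full agonist (100%).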
A general note: In TR-FRET formats the signal depends on donor and acceptor labels being close together.

In data set [7] the target is T3, human muscarinic M3 receptors (Homo sapiens, UniProt P20309).
T3 construct: host or cells: A9L cells
T3 sequence (P20309 whole entry): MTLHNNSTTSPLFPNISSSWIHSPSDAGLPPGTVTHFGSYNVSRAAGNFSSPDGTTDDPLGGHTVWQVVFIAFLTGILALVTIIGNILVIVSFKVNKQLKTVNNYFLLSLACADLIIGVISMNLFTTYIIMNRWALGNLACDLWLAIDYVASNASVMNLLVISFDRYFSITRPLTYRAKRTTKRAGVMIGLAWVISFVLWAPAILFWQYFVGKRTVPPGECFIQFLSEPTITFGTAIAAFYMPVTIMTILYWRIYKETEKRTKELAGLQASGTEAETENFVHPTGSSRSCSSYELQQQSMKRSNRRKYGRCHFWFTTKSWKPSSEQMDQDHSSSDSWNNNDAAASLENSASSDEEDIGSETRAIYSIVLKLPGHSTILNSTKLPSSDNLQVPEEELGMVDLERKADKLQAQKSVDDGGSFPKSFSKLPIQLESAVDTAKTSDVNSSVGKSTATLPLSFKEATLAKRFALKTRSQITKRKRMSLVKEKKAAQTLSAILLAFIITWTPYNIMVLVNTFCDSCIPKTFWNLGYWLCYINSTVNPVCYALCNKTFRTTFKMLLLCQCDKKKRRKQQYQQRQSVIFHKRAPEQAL
The experiment in a line: IP production in A9L cells with human M3 receptors (IPOne TR-FRET), Example 28. It is filed as cell-based. Summed up: as §1

Data set [8] relates to pooled male human liver microsomes. Briefly: Metabolism by human liver microsomes, Example 33. It is filed as in vitro ADME. As to conditions: 6 hours incubation (FIGS. 4A, 4B). As to the method: Compounds were incubated with pooled male human liver microsomes (BD Biosciences, #452172) and an NADP-regenerating system in a phosphate buffer (pH 7.4) for a total of 6 hours. Aliquots were removed every 2 hours, and 1% formic acid was added to halt the reaction. Samples were centrifuged, filtered through 0.2 micron spinfilter and the amount of each compound in the supernatants was quantitated using LC/MS/MS.

The mark [9] stands for this setting: percentage of maximal stimulation by carbachol.
Where [10] appears, read: potency relative to carbachol at its EC50, semi-quantitative.

The term Papp denotes a coefficient for how fast a substance crosses the barrier. High values mean ready permeation, low ones poor permeation. Molecule `CNC(=C[N+](=O)[O-])NCCSCc1ccc(CN(C)C)o1` [Ranitidine] yielded a Papp in data set [1] of 0.26 ×10⁻⁶ cm/s. For the same molecule, the Brain/plasma ratio result in data set [2] is reported as “Very low”.

Consider `Cc1noc(C2=CCCN(C)C2)n1` [Compound 36, 3-methyl-5-(1-methyl-1,2,5,6-tetrahydropyridin-3-yl)-1,2,4-oxadiazole], for which the “extent of metabolism in FMO Supersomes (in words)” value in data set [3] is on record as “almost completely metabolized”. For the same molecule, the “metabolism in rat liver microsomes (in words)” value in data set [4] is “nearly completely metabolized”. In data set [5], this molecule showed an apparent permeability (Papp) of 12.8 ×10⁻⁶ cm/s. Also, the “potency and efficacy at M1 muscarinic receptors (in words)” value in data set [6] (huM1/A9L) is “reasonable potency and efficacy”. For the same molecule, the “selectivity between M1 and M3 receptors” value in data set [6] (huM1 versus huM3 A9L cells) is reported as “shows some selectivity for M1 versus M3 receptors”. Besides, the “huM1/A9L Smax” value in data set [6] (setting [9]) stood at 72%. Further, the “huM1/A9L ED50 relative to CCh*” value in data set [6] (setting [10]) was “+ (+ potency 2-10x CCh)”. Further, the “huM3/A9L Smax” value in data set [7] (setting [9]) is 39%. In addition, the “huM3/A9L ED50 relative to CCh*” value in data set [7] (setting [10]) was “+ (+ potency 2-10x CCh)”. For the same molecule, the “metabolism in human liver microsomes (in words)” value in data set [8] is “nearly completely metabolized”.

(Values after patent publication US9403806B1, “Cognition enhancing compounds and compositions, methods of making, and methods of treating” (NeuroSolis, Inc., priority 2010, dated 2016).)
